Results from article PMC10574562 (Molecules, 2023).
“Also recorded” adds a separate entry of the source.

Assays:
[1] = Interaction with liposome cell membrane models; format: in vitro ADME
Description: (§1) We experimentally confirmed their predicted poor to medium–good permeability profile by measuring their LogD at physiological pH through a known procedure, and by determining their percentage bound to model lipid bilayers after incubation, as a measure of their affinity for cell-membrane-like liposomes. Results are shown in Table 2 (LogD7.4, column 2; interaction with liposomes at 20 °C and 37 °C, columns 3 and 4, respectively).
EDA analogues dissolved in MeOH (0.1 mL) were added to 0.9 mL of large unilamellar phosphatidylcholine vesicles (PC LUVs) in PBS (3 mM lipid final concentration; 0.6 mM EDA analogue final concentration) and incubated at 37 °C for 20 min. Then, any remaining free EDA analogue was separated from liposomes by size-exclusion chromatography.
A disposable syringe (2.5 mL) packed with hydrated Sephadex G-50 resin was placed in a 15 mL plastic test tube and preconditioned with PBS; then, the liposomal suspension (1 mL) was gently added on the top of the syringe and centrifuged at 500× g for 10 min. The eluate was collected at the bottom of the test tube and lysed by addition of Triton X-100 (final concentration 1% v/v). The concentration of each EDA analogue in each solution was estimated with the Folin–Ciocalteu assay. Namely, 50% Folin–Ciocalteu reagent (150 μL) was added to test samples (50 μL) into a 96-well microplate and shaken. After 10 min, a 7.5% sodium carbonate solution (0.1 mL) was added; the mixtures were incubated in the dark for 1 h at rt; and, finally, the absorbance was measured at 765 nm on a BioTek SynergyHT MicroPlate Reader spectrophotometer (Marshall Scientific, Hampton, NH, USA) using an appropriate blank. Reference calibration curves were plotted for every sample. The ratio (%) of the drug incorporated into the lipid bilayer was then calculated according to the following equation:% ratio of incorporated antioxidant = 100 × [incorporated amount]/[added amount](3)

[2] = Determination of distribution coefficient LogD7.4 (1-octanol/PBS); format: physicochemical; conditions: 1-octanol/PBS pH 7.4; ± SD; read-out: Log D7.4
Description: as §1
LogD7.4 values were determined by slightly modifying a reported procedure. Namely, an 80 mM solution of each selected EDA analogue in DMSO was diluted in 1-octanol at a final 800 μM concentration. UV–vis spectra were acquired to determine λmax and the necessary dilutions to obtain absorption values for each tested analogue; between 0.5 and 1. 5 mL of each solution were placed in 15 mL conical centrifuge tubes, PBS was added (5 mL, pH 7.4) and the biphasic system was vigorously mixed using a vortex mixer (VELP Scientifica, Usmate Velate, MB, Italy) for 4 min. After centrifugation (2000× g, 30 min), the 1-octanol phase absorption was measured at each compound’ λmax; the procedure was repeated to acquire data in triplicate. The distribution coefficient logD7.4 was calculated according to the following equation: LogD7.4 = Log ([C]oct/[C]PBS) = Log (Af/Ai − Af)(2) where Ai is the pre-extraction measured absorbance in 1-octanol and Af is the post-extraction final measured absorbance in 1-octanol.

Cu-induced ROS = Cu-induced ROS inhibition; conditions: ± SD
Text: Table 2 In vitro profiling for EDA 1 and selected analogues 2b, 2c and 4a. | column: Cu-Induced ROS Inhibition ^c,a

[3] = DPPH radical scavenging assay; conditions: 25 µM analogue, 100 µM DPPH, MeOH, 30 min incubation
Description: A DPPH assay was carried out after 30 min of incubation with EDA 1 and its analogues in reported conditions to determine their radical scavenging ability.
The DPPH free radical scavenging activity of EDA analogues was determined using a previously described method. Appropriate aliquots of putative antioxidants 1–13c were mixed with DPPH in methanol (25 µM EDA analogue, 100 µM DPPH, final concentration); the reaction mixtures were shaken and then incubated for 30 min in the dark. Their absorbances, and the absorbance of a DPPH solution as a negative control, were then measured at 517 nm with a BioTek SynergyHT MicroPlate Reader spectrophotometer (Marshall Scientific, Hampton, NH, USA) against methanol as blank. The scavenging percentage of each EDA analogue was calculated according to the following equation:DPPH radical scavenging (%) = [(Acontrol—Asample)/Acontrol] × 100,(1) where Acontrol is the control absorbance obtained by adding a methanol aliquot equal to the EDA analogue solution volume added to the methanolic DPPH solution and Asample is the absorbance of each test solution after 30 min incubation. All experiments were repeated at least three times, and measurements were run in triplicate.

[4] = system: oligodendrocyte progenitor cells (OPCs); experiment: MTT reduction assay on purified OPC cultures; format: cell-based, mouse; conditions: lower dosages than 10 μM (not shown)
[5] = system: oligodendrocyte progenitor cells (OPCs); experiment: MTT reduction assay on purified OPC cultures; format: cell-based, mouse; conditions: 10 μM; for Effect on metabolic activity of OPCs (MTT reduction): 48 h incubation, purified mouse OPCs, vs DMSO controls
Description: Purified mouse OPCs were grown for 24 h and treated with EDA 1 and analogues 2b–4c (10 μM) for 44 h; then, MTT was added and OPCs were incubated for 4 h.
Primary cultures of purified OPC (>99%) were obtained from the cerebral hemispheres of newborn CD1 Swiss mice according to the authorization for the care and use of laboratory animals mentioned in Section 4.2.1. OPCs were grown in a defined serum-free Dulbecco’s Modified Eagle Medium (DMEM) without thyroid hormones at 1 × 10^5 cells/cm^2 into poly-L-lysine-coated 96-well microtiter plates for 3 days.
One day after plating, purified OPCs were incubated with or without EDA analogues (10 µM) in DMSO (0.001% vehicle) for 48 h. MTT reduction to formazan was carried out as previously described. MTT (Sigma-Aldrich, Milan, Italy) was added to the culture medium at a final 0.25 mg/mL concentration during the last 4 h of incubation.

[6] = Chemical stability in biological media (DPPH assay and TLC); format: in vitro ADME; conditions: PBS and standard medium, 20 min
Description: We investigated the stability of 4′-ester EDA 2c and N^1-carbamate 4′-ester EDA 4a (respectively, black and grey bars, Figure 5) in biological media, checking both ester and N^1-carbamate stability in 4a both by thin-layer chromatography (TLC) and by checking the DPPH radical scavenging activity of 2c and 4a after incubation.
Namely, 2c and 4a were incubated in PBS and in standard medium at 20 °C and 37 °C for 20 min; then, DPPH was added and the radical scavenging activity was measured in all media.
4′-Ester 2c and N^1-carbamate ester 4a were incubated in PBS and in a standard cell culture medium supplemented with FBS 10% at 20 °C and 37 °C. After 20 min, appropriate aliquots of the solutions were mixed with DPPH in methanol (25 µM, DPPH 100 µM, final concentration) and the DPPH radical scavenging assay was carried out as described above. Assay media after incubation were also monitored by TLC (eluent mixture: 1:1 cyclohexane/AcOEt).

CC1=NN(c2ccc(C(=O)O)cc2)C(=O)C1 [Compound 2b]
Affinity for a Model Lipid Bilayer, % ratio of liposome-bound EDA analogue ([1]; 20 °C): 38 ± 4%
Affinity for a Model Lipid Bilayer, % ratio of liposome-bound EDA analogue ([1]; 37 °C): 45 ± 2%
logD [2]: -0.74 ± 0.19
IC50 (Cu-induced ROS): 38 ± 5 µM
DPPH radical scavenging/antioxidant activity [3]: significantly more potent than EDA 1; also recorded: significantly higher antioxidant activity than parent EDA 1

CCC1=NN(c2ccccc2)C(=O)C1 [Compound 3a]
DPPH radical scavenging/antioxidant activity [3]: comparable antioxidant activity to EDA 1
OPC activity in MTT assay at lower dosages [4]: inactive at lower dosages
Cytotoxicity on OPCs in MTT assay [5]: cytotoxic at this concentration

CC1=NN(c2ccc(C(=O)NCc3ccc(C4(C(F)(F)F)N=N4)cc3)cc2)C(=O)C1 [Compound 2f]
OPC activity in MTT assay at lower dosages [4]: inactive at lower dosages
Cytotoxicity on OPCs in MTT assay [5]: cytotoxic at this concentration
Effect on metabolic activity of OPCs (MTT reduction) [5]: lack of activity on OPCs

CC1=NN(c2ccccc2)C(=O)C1 [Compound 1, edaravone, reference compound]
Affinity for a Model Lipid Bilayer, % ratio of liposome-bound EDA analogue ([1]; 20 °C): 37 ± 3%
Affinity for a Model Lipid Bilayer, % ratio of liposome-bound EDA analogue ([1]; 37 °C): 53 ± 2%
logD [2]: 1.1 ± 0.1
IC50 (Cu-induced ROS): 14 ± 2 µM

O=C1CC(COCc2ccccc2)=NN1c1ccccc1 [Compound 3b]
DPPH radical scavenging/antioxidant activity [3]: comparable antioxidant activity to EDA 1

CC1=NN(c2ccc(C(=O)NCCN=[N+]=[N-])cc2)C(=O)C1 [Compound 2d]
DPPH radical scavenging/antioxidant activity [3]: comparable antioxidant activity to EDA 1
Effect on metabolic activity of OPCs (MTT reduction) [5]: did not stimulate OPC development compared to DMSO controls; also recorded: lack of activity on OPCs

CC1=NN(c2ccc(C(=O)NCCCCCCN=[N+]=[N-])cc2)C(=O)C1 [Compound 2e]
Effect on metabolic activity of OPCs (MTT reduction) [5]: did not stimulate OPC development compared to DMSO controls; also recorded: lack of activity on OPCs

CC1=NN(c2ccc(CO)cc2)C(=O)C1 [Compound 2g]
DPPH radical scavenging/antioxidant activity [3]: comparable antioxidant activity to EDA 1

COC(=O)c1ccc(-n2c(=O)cc(C)n2C(=O)OC(C)(C)C)cc1 [Compound 4a, Tert-butyl 2-(4-(methoxycarbonyl)phenyl)-5-methyl-3-oxo-2,3-dihydro-1H-pyrazole-1-carboxylate]
DPPH radical scavenging activity after incubation in biological media ([6]; 20 °C): did not scavenge DPPH
Stability in biological media by TLC ([6]; 20 °C): stability was confirmed by TLC
DPPH radical scavenging activity after incubation in biological media ([6]; 37 °C): significant antioxidant activity was detected
Stability in biological media by TLC (N^1-carbamate) ([6]; 37 °C): N^1-carbamate hydrolysis and 2c formation; also recorded: fully removed
Affinity for a Model Lipid Bilayer, % ratio of liposome-bound EDA analogue ([1]; 20 °C): 88 ± 6%
Affinity for a Model Lipid Bilayer, % ratio of liposome-bound EDA analogue ([1]; 37 °C): 77 ± 4%
logD [2]: 2.3 ± 0.4
IC50 (Cu-induced ROS): 65 ± 6 µM
Effect on metabolic activity of OPCs (MTT reduction) [5]: stimulated OPC metabolism comparably to EDA 1; also recorded: comparable stimulation of OPC metabolism

COC(=O)c1ccc(N2N=C(C)CC2=O)cc1 [Compound 2c, Methyl 4-(3-methyl-5-oxo-4,5-dihydro-1H-pyrazol-1-yl)benzoate]
DPPH radical scavenging activity after incubation in biological media ([6]; 20 °C and 37 °C): expected radical scavenging activity
Stability in biological media by TLC ([6]; 20 °C and 37 °C): stability in biological media was confirmed
Affinity for a Model Lipid Bilayer, % ratio of liposome-bound EDA analogue ([1]; 20 °C): 52 ± 2%
Affinity for a Model Lipid Bilayer, % ratio of liposome-bound EDA analogue ([1]; 37 °C): 71 ± 2%
logD [2]: 1 ± 0.1
IC50 (Cu-induced ROS): 53 ± 7 µM
DPPH radical scavenging/antioxidant activity [3]: comparable antioxidant activity to EDA 1
Effect on metabolic activity of OPCs (MTT reduction) [5]: stimulated OPC metabolism comparably to EDA 1; also recorded: comparable stimulation of OPC metabolism

CC1=NN(c2ccc(CN=[N+]=[N-])cc2)C(=O)C1 [Compound 2h]
DPPH radical scavenging/antioxidant activity [3]: comparable antioxidant activity to EDA 1
Effect on metabolic activity of OPCs (MTT reduction) [5]: did not stimulate OPC development compared to DMSO controls; also recorded: lack of activity on OPCs
